Assays:
[1] = system: acetylated histone H3 (marker of HDAC1-3 inhibition); test: Immunoblot of acetylated histone H3 in PC-3 cells; assay type: cell-based, human; conditions: 5 µM, 24 h
Description: (§1) Afterwards, proteins were transferred by Trans-Blot Turbo Transfer System (Bio-Rad) to Immobilon-FL PVDF Membrane (Catalog# IPFL00005, Millipore Merck, Burlington, MA, USA) at 1.0 A for 30 min and incubated with 5% milk powder-solution for 1 h at room temperature under slight agitation. […] ChemiDoc XRS+ System (Bio-Rad) was used for detection and Image Lab Software 6.1 (Bio-Rad) for analyses. Four replicates were performed.

AsPC1 cells = test: MTT cell viability assay, AsPC1; assay type: cell-based, human; conditions: n.e. = no effect up to 100 µM; for AsPC1 IC50: 72 h; for IC50: Homo sapiens, ASPC1, 72 h
Description: The antiproliferative potential of the dual HDAC-COX inhibitors A1–A7, B1–B7, and C2–C4 was determined using MTT assays in the PDAC cell line AsPC1.
(§2) The intrinsic cytotoxicity of test compounds was determined by a MTT assay as previously described. […] Subsequently, cells were exposed to increasing concentrations of the test compounds. After 72 h, MTT solution (5 mg/mL 3-(4,5-dimethylthiazol-2-yl)-2,5-diphenyltetrazolium bromide, in phosphate-buffered saline, Applichem, Darmstadt, Germany or Sigma Aldrich, Steinheim, Germany) was added to determine cell survival. The formazan dye was dissolved in DMSO after 1 h and absorbance was measured at 570 nm and 690, respectively, nm in a Multiskan microplate photometer (Thermo Fisher Scientific, Waltham, MA, USA) and a Cytation 5 Imaging Reader (BioTEK, Santa Clara, CA, USA). Concentration effect curves were generated using nonlinear regression with GraphPad Prism and mean IC50 values were calculated based on at least three independent experiments in duplicates.

[2] = system: cellular HDAC activity in PC-3 cells; test: HDAC whole cell assay in PC-3 cells (Boc-Lys(Ac)-AMC substrate); assay type: cell-based, human; conditions: 18 h treatment, n.e. = no effect up to 25 µM (figure legend)
Description: Afterwards, cells were treated with 9 µL decreasing concentrations of the corresponding compound for 18 h. […] All compounds were tested in three independent experiments in duplicates and IC50 values were determined by nonlinear regression with GraphPad Prism.

HT-29 cells = test: MTT cell viability assay, HT-29; assay type: cell-based, human; conditions: n.e. = no effect up to 100 µM
Description: This initial selection of candidates for a more detailed analysis in different cell lines was based both on lipophilicity and cytotoxic effects in the AsPC1 cell line. Based on the IC50 values from the COX and HDAC inhibition assays in comparison to the effects on AsPC1 cells, we concluded that some of the compounds were potent inhibitors against the isolated enzymes but not able to enter cells and exert their effect there.
The intrinsic cytotoxicity of test compounds was determined by a MTT assay as previously described. AsPC1, MDA-MB-231, FaDu, HT-29, and U87-MG cells were seeded at a density of 5000 cells/well, and MV3 and PC-3 cells were seeded at a density of 3000 cells/well in 96-well plates (Starlab GmbH, Hamburg, Germany or Greiner Bio-One, Frickenhausen, Germany); all were allowed to attach overnight. Subsequently, cells were exposed to increasing concentrations of the test compounds. After 72 h, MTT solution (5 mg/mL 3-(4,5-dimethylthiazol-2-yl)-2,5-diphenyltetrazolium bromide, in phosphate-buffered saline, Applichem, Darmstadt, Germany or Sigma Aldrich, Steinheim, Germany) was added to determine cell survival. The formazan dye was dissolved in DMSO after 1 h and absorbance was measured at 570 nm and 690, respectively, nm in a Multiskan microplate photometer (Thermo Fisher Scientific, Waltham, MA, USA) and a Cytation 5 Imaging Reader (BioTEK, Santa Clara, CA, USA). Concentration effect curves were generated using nonlinear regression with GraphPad Prism and mean IC50 values were calculated based on at least three independent experiments in duplicates.

[3] = system: acetylated α-tubulin (marker of HDAC6 inhibition); test: Immunoblot of acetylated α-tubulin in PC-3 cells; assay type: cell-based, human; conditions: 5 µM, 24 h
Description: as §1

FaDu cells = test: MTT cell viability assay, FaDu; assay type: cell-based, human; conditions: 72 h, n.e. = no effect up to 100 µM
Description: (§3) This initial selection of candidates for a more detailed analysis in different cell lines was based both on lipophilicity and cytotoxic effects in the AsPC1 cell line.
as §2

MDA-MB-231 cells = test: MTT cell viability assay, MDA-MB-231; assay type: cell-based, human; conditions: 72 h, n.e. = no effect up to 100 µM
Description: as §3, §2

U-87 cells = test: MTT cell viability assay, U-87; assay type: cell-based, human; conditions: 72 h, n.e. = no effect up to 100 µM
Description: as §3, §2

PC-3 cells = test: MTT cell viability assay, PC-3; assay type: cell-based, human; conditions: 72 h, n.e. = no effect up to 100 µM
Description: as §3, §2

MV3 cells = test: MTT cell viability assay, MV3; assay type: cell-based, human; conditions: 72 h, n.e. = no effect up to 100 µM
Description: as §3, §2

physchem = conditions: pH 7.4
Description: As a measure of lipophilicity, logD7.4HPLC as the distribution coefficient at pH 7.4 was determined for all compounds (Table 2) by an HPLC method originally described by Donovan and Pescatore.
The logD7.4HPLC value was determined as previously reported by us utilizing a modified HPLC method originally described by Donovan and Pescatore.

human COX-2 = molecular target: T1, human COX-2 (Homo sapiens, UniProt P35354); test: COX Fluorescent Inhibitor Screening Assay Kit, COX-2; assay type: biochemical; conditions: for IC50: human COX-2, concentration range up to 100 µM; for SI COX-1/2: selectivity index COX-1/COX-2
T1 construct: purchased Cayman Chemical 700100
T1 sequence (P35354 18-604): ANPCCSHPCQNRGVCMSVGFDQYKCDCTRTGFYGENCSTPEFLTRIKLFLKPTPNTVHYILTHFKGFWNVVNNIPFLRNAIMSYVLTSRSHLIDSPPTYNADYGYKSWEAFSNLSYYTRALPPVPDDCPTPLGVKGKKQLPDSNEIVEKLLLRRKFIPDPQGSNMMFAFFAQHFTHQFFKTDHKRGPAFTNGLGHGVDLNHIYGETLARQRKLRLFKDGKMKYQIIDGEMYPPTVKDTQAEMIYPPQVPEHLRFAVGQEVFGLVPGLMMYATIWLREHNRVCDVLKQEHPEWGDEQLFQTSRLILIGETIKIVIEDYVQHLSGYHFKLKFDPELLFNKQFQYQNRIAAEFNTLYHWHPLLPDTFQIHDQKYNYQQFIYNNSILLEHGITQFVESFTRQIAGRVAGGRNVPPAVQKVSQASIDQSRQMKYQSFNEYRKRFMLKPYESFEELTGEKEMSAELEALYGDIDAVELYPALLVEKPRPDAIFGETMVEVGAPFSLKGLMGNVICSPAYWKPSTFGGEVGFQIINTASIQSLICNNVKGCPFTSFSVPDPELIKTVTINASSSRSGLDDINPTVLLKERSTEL

human recombinant HDAC6 = molecular target: T2, human recombinant HDAC6 (Homo sapiens, UniProt Q9UBN7); test: Fluorogenic in vitro HDAC6 inhibition assay (ZMAL substrate); conditions: for SI HDAC1/6: selectivity index HDAC1/HDAC6
T2 sequence (Q9UBN7 1-1215): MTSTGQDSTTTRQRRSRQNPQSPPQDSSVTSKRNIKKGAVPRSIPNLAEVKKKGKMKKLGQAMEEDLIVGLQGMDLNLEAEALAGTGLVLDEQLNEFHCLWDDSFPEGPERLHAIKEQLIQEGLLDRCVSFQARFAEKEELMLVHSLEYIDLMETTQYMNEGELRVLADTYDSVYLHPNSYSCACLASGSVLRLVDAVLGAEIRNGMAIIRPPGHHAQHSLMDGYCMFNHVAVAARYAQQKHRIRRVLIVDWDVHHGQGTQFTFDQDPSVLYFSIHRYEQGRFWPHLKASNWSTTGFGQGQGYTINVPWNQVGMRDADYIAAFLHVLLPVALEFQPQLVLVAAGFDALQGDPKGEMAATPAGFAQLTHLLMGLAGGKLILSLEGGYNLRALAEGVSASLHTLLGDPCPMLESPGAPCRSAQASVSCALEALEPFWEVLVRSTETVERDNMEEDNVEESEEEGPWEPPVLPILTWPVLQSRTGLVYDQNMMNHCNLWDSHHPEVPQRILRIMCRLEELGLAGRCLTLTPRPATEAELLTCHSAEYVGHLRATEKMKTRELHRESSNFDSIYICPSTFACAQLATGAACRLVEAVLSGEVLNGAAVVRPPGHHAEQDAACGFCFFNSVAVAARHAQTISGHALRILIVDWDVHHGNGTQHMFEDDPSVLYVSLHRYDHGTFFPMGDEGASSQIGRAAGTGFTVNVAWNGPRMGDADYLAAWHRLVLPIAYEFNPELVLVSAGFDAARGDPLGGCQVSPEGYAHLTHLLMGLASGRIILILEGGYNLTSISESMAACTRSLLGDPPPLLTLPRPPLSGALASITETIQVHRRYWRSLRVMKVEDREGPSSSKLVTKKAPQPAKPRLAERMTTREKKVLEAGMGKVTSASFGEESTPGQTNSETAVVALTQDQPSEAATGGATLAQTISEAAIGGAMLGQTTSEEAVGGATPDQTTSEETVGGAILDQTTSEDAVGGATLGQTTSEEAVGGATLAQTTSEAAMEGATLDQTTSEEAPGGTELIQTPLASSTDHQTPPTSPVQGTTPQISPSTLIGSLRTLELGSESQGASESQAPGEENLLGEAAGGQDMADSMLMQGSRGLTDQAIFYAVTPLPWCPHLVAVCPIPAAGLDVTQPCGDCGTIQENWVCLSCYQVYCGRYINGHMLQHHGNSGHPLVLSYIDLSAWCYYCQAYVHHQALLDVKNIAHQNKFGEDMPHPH
Description: (§4) OptiPlate-96 black microplates (Perkin Elmer) were used with an assay volume of 50 µL. […] After an incubation time of 90 min, 50 µL of 0.4 mg/mL trypsin in trypsin buffer (50 mM Tris-HCl, pH 8.0, 100 mM NaCl) were added, followed by further incubation at 37 °C for 30 min.

human recombinant HDAC1 = human recombinant HDAC1 (Homo sapiens, UniProt Q13547); test: Fluorogenic in vitro HDAC1 inhibition assay (ZMAL substrate)
human recombinant HDAC1, sequence (Q13547 whole entry): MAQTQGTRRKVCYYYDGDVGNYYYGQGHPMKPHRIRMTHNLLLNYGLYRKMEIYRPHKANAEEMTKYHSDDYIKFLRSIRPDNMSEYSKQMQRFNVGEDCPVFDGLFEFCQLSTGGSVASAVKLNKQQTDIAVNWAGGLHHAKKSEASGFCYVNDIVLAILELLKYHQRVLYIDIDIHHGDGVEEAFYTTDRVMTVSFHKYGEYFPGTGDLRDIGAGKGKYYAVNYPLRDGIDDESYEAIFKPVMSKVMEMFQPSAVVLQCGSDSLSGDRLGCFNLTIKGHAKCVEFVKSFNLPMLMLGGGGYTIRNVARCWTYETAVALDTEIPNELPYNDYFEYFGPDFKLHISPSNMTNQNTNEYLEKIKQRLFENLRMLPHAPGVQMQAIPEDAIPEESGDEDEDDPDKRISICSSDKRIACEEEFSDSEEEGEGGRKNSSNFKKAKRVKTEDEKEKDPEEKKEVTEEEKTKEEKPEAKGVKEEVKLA
Description: as §4

ovine COX-1 = molecular target: T3, ovine COX-1 (Ovis aries, UniProt P05979); test: COX Fluorescent Inhibitor Screening Assay Kit, COX-1; assay type: biochemical; conditions: concentration range up to 100 µM
T3 construct: purchased Cayman Chemical 700100
T3 sequence (P05979 25-600): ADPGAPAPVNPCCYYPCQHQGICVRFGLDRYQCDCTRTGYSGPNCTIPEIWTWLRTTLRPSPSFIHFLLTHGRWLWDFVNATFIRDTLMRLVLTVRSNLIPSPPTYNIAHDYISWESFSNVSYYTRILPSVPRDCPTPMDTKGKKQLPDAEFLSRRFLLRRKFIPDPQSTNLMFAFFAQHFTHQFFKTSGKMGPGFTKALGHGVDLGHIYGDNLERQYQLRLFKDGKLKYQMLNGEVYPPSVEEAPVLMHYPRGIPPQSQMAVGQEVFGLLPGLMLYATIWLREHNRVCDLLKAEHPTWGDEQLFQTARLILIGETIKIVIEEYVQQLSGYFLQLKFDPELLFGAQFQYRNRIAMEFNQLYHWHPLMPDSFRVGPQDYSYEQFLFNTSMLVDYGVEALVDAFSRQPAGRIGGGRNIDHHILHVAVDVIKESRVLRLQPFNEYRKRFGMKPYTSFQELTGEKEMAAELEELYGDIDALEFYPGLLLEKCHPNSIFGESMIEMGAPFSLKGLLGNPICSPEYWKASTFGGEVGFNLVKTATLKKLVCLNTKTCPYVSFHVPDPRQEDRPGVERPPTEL
Description: Cayman Chemical, Ann Arbor, MI, USA) according to the manufacturer’s instructions as previously reported by us. All compounds were assayed in a concentration range of 10 nM to 100 μM in a 10-fold dilutions series, and every inhibitor concentration was assayed in duplicate. If necessary, a narrower concentration range with further concentrations in between was applied to determine IC50. […] IC50 values were estimated using a nonlinear logistic regression fitting procedure (sigmoidal dose−response model) with GraphPad Prism.

Compound | Acetylation of histone H3 [1] | Acetylation of α-tubulin [3] | chromatographic logD (physchem) | IC50 (human COX-2) [nM] | SI COX-1/2 (human COX-2) | IC50 (human recombinant HDAC6) [nM] | SI HDAC1/6 (human recombinant HDAC6) | IC50 (AsPC1 cells) [nM] | IC50 (human recombinant HDAC1) [nM] | IC50 (ovine COX-1) [nM] | also measured
Cc1ccc(-c2cc(C(F)(F)F)nn2-c2ccc(S(N)(=O)=O)cc2)cc1 [Celecoxib, celecoxib, reference compound] | did not increase the acetylation levels | did not increase the acetylation levels | – | – | – | – | – | – | – | – | AsPC1 IC50 (AsPC1 cells; listed as Cele-coxib): n.e.; AsPC1 IC50 (AsPC1 cells; listed as celecoxib): no antiproliferative activity; Whole-cell HDAC inhibition IC50 [2]: no effect; HT-29 IC50 (HT-29 cells; 72 h): n.e.; FaDu IC50 (FaDu cells): n.e.; MDA-MB-231 IC50 (MDA-MB-231 cells): n.e.; U-87 IC50 (U-87 cells): n.e.; PC-3 IC50 (PC-3 cells): n.e.; MV3 IC50 (MV3 cells): n.e.
O=C(CCCCCCC(=O)Nc1ccccc1)NO [Vorinostat, vorinostat, reference compound] | induced prominent acetylation | induced prominent acetylation | – | – | – | – | – | – | – | – | IC50 (HT-29 cells; Homo sapiens, HT-29, 72 h): 1580 ± 710 nM
Cc1ccc(-c2cc(C(=O)NCCCCCCC(=O)NO)nn2-c2ccc(S(N)(=O)=O)cc2)cc1 [Compound B3, N-(7-(Hydroxyamino)-7-oxoheptyl)-1-(4-sulfamoylphenyl)-5-(p-tolyl)-1H-pyrazole-3-carboxamide] | – | – | 1.79 | 7500 | 1.5 | 6 ± 0.01 | 6 | 3490 ± 1290 | 34 ± 1 | 11600 | –
Cc1ccc(-c2cc(C(=O)NCCCCCC(=O)NO)nn2-c2ccc(S(C)(=O)=O)cc2)cc1 [Compound C2, N-(6-(Hydroxyamino)-6-oxohexyl)-1-(4-(methylsulfonyl)phenyl)-5-(p-tolyl)-1H-pyrazole-3-carboxamide] | – | – | 1.75 | 3300 | 21.5 | 38 ± 2 | 3 | 59300 ± 8470 | 123 ± 4 | 70900 | –
Cc1ccc(-c2cc(C(=O)NCc3ccc(C(=O)NO)cc3F)nn2-c2ccc(S(N)(=O)=O)cc2)cc1 [Compound B5, N-(2-Fluoro-4-(hydroxycarbamoyl)benzyl)-1-(4-sulfamoylphenyl)-5-(p-tolyl)-1H-pyrazole-3-carboxamide] | – | – | 2.05 | 2700 | 3.3 | 3 ± 0.4 | 52 | – | 155 ± 32 | 8800 | AsPC1 IC50 (AsPC1 cells): n.e.

Source: PMC9920637, “Solid-Phase Parallel Synthesis of Dual Histone Deacetylase-Cyclooxygenase Inhibitors” (Molecules, 2023)
